Data from patent publication US20060136140A1, “Method for identification and functional characterization of agents which modulate ion channel activity” (priority 2004, published 2006).
“Also recorded” adds a separate entry of the source. Read-outs that look alike come from different tables or passages of the source. No end group written: not given here.

Columns and labels:
HERG K+ channel [1] = biological target: T1, HERG K+ channel (Homo sapiens, UniProt Q12809)
Protocol: Cell functional assay using atomic absorption detection—Rubidium flux out of HERG-transfected CHO cells was characterized using a Shimadzu atomic absorption system. The amount of rubidium in the extracellular and intracellular compartments was determined after depolarization with 50 mM KCl, following a 3-minute incubation with test sample. The atomization buffer included 0.1% […]/1% HNO3 to suppress ionization of rubidium.
Minor modification of the published protocol was necessary due to different expression levels of the HERG protein in recombinant cells.
Two injections per sample are made into a Shimadzu AA and if the cv reaches 10%, a third injection is performed; the computer selects the two closer values.

HERG K+ channel [2] = biological target: T1, HERG K+ channel; remark: listed apart in the source
Protocol: Cell functional assay using membrane potential dye—A membrane potential dye-based functional assay based on the HERG-expressing CHO cells has been developed. This assay was performed on the same library in parallel with the radioligand and AA-based functional assay. HERG-expressing CHO cells were plated as for the AA assay, except they were loaded with […] DiBAC4 instead of RbCl. Test samples or controls were added inside a Molecular Devices FlexStation and readings were taken over a 25 minute time frame.
Membrane Potential Assay Procedure—100 uL of 250,000 cells/mL in media were added to a 96-well assay plate and cultured overnight. The cells were washed with Hanks/HEPES buffer with 2 g/L of glucose (loading buffer) and 100 uL of warmed loading buffer was added. 80 uL of the FLIPR Membrane Potential dye (Molecular Devices; dissolved in loading buffer) was then added and the samples incubated for at 45 min at 37° C. Drugs (10× final concentration) in loading buffer were run along with no-drug controls. […] […] Maximum response plateau is expected at approximately 7 minutes. This value will be used for EC50 calculation. […] For the other “actives”, IC50 values will be determined in this assay and at 1 or 2 concentrations in the Rb^+ flux assay.
One whole cell based functional assay we employed was based on the voltage sensitive dye DiBac4, using a detection method originally developed by Dr. Vince Groppi of Pharmacia-Upjohn FLIPR and FlexStation fluorescence detection systems. Cells expressing ion channels like HERG protein are hyperpolarized in the resting state. Inhibition of ion channel activities allows cells to return to normal potential. As the cell membrane becomes more positive, dye migrates into cell membrane, increasing the quantum efficiency of the dye and thus increasing fluorescence. […] Large number of compounds may be readily tested in either 96- or 384-well format. The mechanism of detection is based on the dye translocation in response to changes of the membrane environment. In certain circumstances, it may be desirable to perform confirmatory assays.

HERG potassium current = HERG potassium current (Homo sapiens, UniProt Q12809); conditions: cited from earlier work
Sequence of HERG potassium current (Q12809 whole entry): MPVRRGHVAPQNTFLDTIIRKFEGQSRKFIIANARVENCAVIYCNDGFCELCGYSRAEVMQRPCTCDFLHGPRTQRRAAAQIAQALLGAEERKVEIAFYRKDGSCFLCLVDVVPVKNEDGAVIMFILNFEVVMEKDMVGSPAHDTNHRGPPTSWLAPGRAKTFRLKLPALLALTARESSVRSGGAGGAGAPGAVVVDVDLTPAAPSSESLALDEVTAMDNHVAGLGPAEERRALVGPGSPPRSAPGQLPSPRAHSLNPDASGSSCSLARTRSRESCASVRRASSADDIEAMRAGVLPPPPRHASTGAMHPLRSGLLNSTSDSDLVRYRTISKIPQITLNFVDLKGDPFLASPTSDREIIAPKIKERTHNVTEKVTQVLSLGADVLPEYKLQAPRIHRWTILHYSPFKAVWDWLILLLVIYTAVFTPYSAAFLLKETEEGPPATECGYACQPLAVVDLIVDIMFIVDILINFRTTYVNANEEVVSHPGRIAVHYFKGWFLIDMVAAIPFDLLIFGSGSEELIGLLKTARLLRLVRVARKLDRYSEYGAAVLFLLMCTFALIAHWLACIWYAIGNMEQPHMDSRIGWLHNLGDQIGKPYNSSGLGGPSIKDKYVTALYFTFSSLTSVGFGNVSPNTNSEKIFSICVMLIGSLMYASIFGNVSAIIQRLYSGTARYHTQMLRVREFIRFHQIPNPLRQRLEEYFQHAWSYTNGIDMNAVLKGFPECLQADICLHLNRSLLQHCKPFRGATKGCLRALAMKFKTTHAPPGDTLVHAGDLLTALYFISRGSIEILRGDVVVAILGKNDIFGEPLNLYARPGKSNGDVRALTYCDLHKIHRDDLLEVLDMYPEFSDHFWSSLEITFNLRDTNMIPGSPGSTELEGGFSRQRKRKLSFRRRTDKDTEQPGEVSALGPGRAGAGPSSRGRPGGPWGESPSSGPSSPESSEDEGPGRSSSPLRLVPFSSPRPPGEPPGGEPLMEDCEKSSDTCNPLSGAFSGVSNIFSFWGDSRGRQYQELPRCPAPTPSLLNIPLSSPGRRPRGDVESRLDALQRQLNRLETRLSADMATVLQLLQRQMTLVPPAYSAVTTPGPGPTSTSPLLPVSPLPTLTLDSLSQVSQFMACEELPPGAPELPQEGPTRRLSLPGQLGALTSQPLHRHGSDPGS

HERG K+ channel [3] = biological target: T1, HERG K+ channel; remark: listed apart in the source
HERG protein = HERG protein (Homo sapiens, UniProt Q12809)
Sequence of HERG protein (Q12809 whole entry): as above
Protocol: Membrane preparations and ligand binding assays—Frozen cell pellets were first thawed and homogenized in 10 to 20 ml of assay buffer. An aliquot was taken for protein determination and the remaining homogenate was centrifuged (48,000×g, 10 min., 4° C.). According to the determined protein concentration, the resultant pellet was suspended in Heylen's buffer and added to radioligand and test compound. […] Bound radioactivity was determined by liquid scintillation spectroscopy.
Sources of radioligand—Various different radioligands were used in order to identify candidates for a given binding site.

[4] = radiolabeled form, wild type vs recombinant CHO cells

T1 sequence (Q12809 whole entry): as above

## CC(C)NCC(O)c1ccc(NS(C)(=O)=O)cc1 (racemic) [sotalol, (+/−)sotalol]
HERG K+ channel [1]
  activity in the assay using atomic absorption: modestly active
HERG K+ channel [2]
  activity in the dye-based assay: did not exhibit any activity

## CC[C@H]1OC(=O)[C@H](C)[C@@H](O[C@H]2C[C@@](C)(OC)[C@@H](O)[C@H](C)O2)[C@H](C)[C@@H](O[C@@H]2O[C@H](C)C[C@H](N(C)C)[C@H]2O)[C@](C)(OC)C[C@@H](C)C(=O)[C@H](C)[C@@H](O)[C@]1(C)O [Clarithromycin]
HERG potassium current
  IC50: 45.7 µM

## Fc1ccc(C(OCCN2CCN(CCCc3ccccc3)CC2)c2ccc(F)cc2)cc1 [GBR12909]
HERG K+ channel [3]
  activity in all three assays: consistent and relatively potent activity

## c1ccc(CCCN2CCN(CCOC(c3ccccc3)c3ccccc3)CC2)cc1 [GBR12935]
HERG K+ channel [3]
  activity in all three assays: consistent and relatively potent activity

## COC(=O)[C@H]1[C@@H](c2ccc(F)cc2)C[C@@H]2CC[C@H]1N2C [WIN-35428]
HERG protein; [4]
  binding of radiolabeled ligand, specificity for the recombinant protein: None of these compounds indicated sufficient specificity

## O=C(CCCN1CCC(O)(c2ccc(Cl)cc2)CC1)c1ccc(F)cc1 [[^3H]-Haloperidol]
HERG protein
  binding of radiolabeled ligand, specificity for the recombinant protein: high binding levels with both the wild type and the recombinant CHO cells

## O=C(CCCN1CCC(O)(c2ccc(Cl)cc2)CC1)c1ccc(F)cc1 [haloperidol, Haloperidol]
HERG K+ channel [1]
  inhibition of HERG channel (Rb+ efflux), dose response: completely inhibited

## COC(=O)C1=C(C)NC(C)=C(C(=O)OCCN(C)Cc2ccccc2)C1c1cccc([N+](=O)[O-])c1 (centres unmarked) [nicardipine, Nicardipine]
HERG K+ channel [1]; 10^−5 M, room temperature
  activity in the assay using atomic absorption: modestly active
HERG K+ channel [2]; 10^−5 M, room temperature
  activity in the dye-based assay: lack of functional activity; also recorded: did not exhibit any activity
HERG K+ channel [2]; 10^−5 M, room temperature, listed as Nicardipine
  activity in the dye-based assay: lacked activity

## O=c1[nH]c2ccccc2n1C1CCN(CCCC(c2ccc(F)cc2)c2ccc(F)cc2)CC1 [pimozide, Pimozide]
HERG K+ channel [1]
  inhibition of HERG channel (Rb+ efflux), dose response: completely inhibited
HERG K+ channel [3]
  activity in all three assays: consistent and relatively potent activity

## [^125I]-BeKm-1: custom preparation of the iodinated scorpion toxin (RPTDIKCSESYQCFPVCKSRFGKTNGRCVNGFCDCF; ends and bridges not checked; also: 125I iodinated, site not given here; UniProt Q9BKB7 22-57, looked up)
HERG protein; [4]
  binding of radiolabeled ligand, specificity for the recombinant protein: did not observe sufficient binding
